Results from patent publication US20210023209A1, “ANTIGENIC PEPTIDES DERIVING FROM PCSK2 AND USES THEREOF FOR THE DIAGNOSIS AND TREATMENT OF TYPE 1 DIABETES” (INSERM (INSTITUT NATIONAL DE LA SANTÉ ET DE LA RECHERCHE …, priority 2018, published 2021).
Residues, ends and D or L forms follow the SMILES beside them.

Assays:
[1] = system: circulating CD8^+ T cells; assay: ex-vivo combinatorial HLA-A2 MMr assay on PBMCs; assay type: cell-based, human; details: for cognate naïve CD8^+ T-cell repertoire (validation of candidate epitope): frequency 1-50/10^6 CD8^+ T cells, clustered MMr staining, ≥50% of individuals; for median frequency in peripheral blood: T1D patients; for frequency of MMr^+ CD8^+ T cells, in words: HLA-A2^+ recent-onset T1D and healthy subjects
[2] = system: islet-infiltrating CD8+ T cells of NOD mice; assay: IFN-γ recall assay of islet-infiltrating cells against peptide-pulsed K^d+ L cells; assay type: cell-based; details: for positive mice (number/tested) / positive mice, percentage: 12-16-week-old NOD females, positive = IFN-γ^+CD8^+ cells >1.8%; for median percentage of IFN-γ^+CD8^+ cells / positive range of percentage of IFN-γ^+CD8^+ cells: 6 h peptide recall with brefeldin-A, intracellular IFN-γ staining
Source text: Peptides predicted to be restricted by the murine MHC Class I K^d molecule were identified using prediction algorithms and scanning of the whole murine protein sequence. Peptides were first tested in pools, and positive pools subsequently deconvoluted for reactivity against individual peptides. To this end, islets were isolated from 12-16-week-old NOD mice by collagenase digestion and put in culture with recombinant human IL-2 (Proleukin, Novartis) for 5 days as described (Brezar et al, Eur J Immunol 2012). Cells exiting the islets were subsequently collected and subjected to recall assays against K^d+ L antigen-presenting cells pulsed with the indicated peptides for 6 h in the presence of brefeldin-A, followed by intracellular staining for IFN-γ. The TUM, Ins B15-23 and IGRP 206-214 peptides were included as negative control and positive controls, respectively.
We performed experiments in 12-16-week-old NOD females by analyzing the reactivity of islet-infiltrating CD8^+ T cells to peptides derived from murine Ucn3 and Pcsk2 and predicted to be restricted by the murine MHC molecule K^d. A positive response was defined as a percentage of IFN-γ^+CD8^+ cells >1.8%, which was the median response observed for the negative control TUM peptide.

[3] = system: pancreas-infiltrating cells of HLA-A2^+ T1D patients; assay: in-situ HLA-A2 MMr staining on pancreas sections; assay type: cell-based, human; details: 2 HLA-A2^+ T1D cases, nPOD tissue sections
Description: In-situ staining was performed as described (Culina et al., 2018). Unfixed, frozen sections were dried for 2 h, loaded with 1 μg of MMrs overnight at 4° C., washed gently with phosphate-buffered saline and fixed in 2% paraformaldehyde for 10 min. After a further wash, endogenous peroxidase activity was blocked with 0.3% H2O2. Sections were then incubated serially with rabbit anti-phycoerythrin, horseradish peroxidase-conjugated swine anti-rabbit and 3,3′-diaminobenzidine tetrahydrochloride substrate (ThermoFisher). After a final wash, sections were counterstained with hematoxylin, dehydrated via sequential passages in 95-100% ethanol and xylene, mounted and analyzed using a Nikon Eclipse Ni microscope with NIS-Elements Analysis D software v4.40.

HLA-A*02:01 [4] = target: T1, HLA-A*02:01 (human); assay: one of the 18 HLA-eluted peptides with verified HLA-A2 binding; loaded on HLA-A2 multimers
T1 construct: HLA-A2 multimers were produced as in Leisner et al. 2008; also called HLA-A2; A2

HLA-A*02:01 [5] = target: T1, HLA-A*02:01; assay: LC-MS/MS of peptides eluted from W6/32-purified pHLA Class I complexes of beta cells; the HLA-A2 restriction in this row is predicted
Description: The HLA class I peptidome of the ECN90 β-cell line was obtained from 5 biological replicates. A single biological replicate was available for primary human islets. […] Beads were subsequently loaded on GELoader Tips (20 μl; ThermoFisher) and washed before elution of pHLA complexes with 10% acetic acid.
Eluted peptides and the associated HLA Class I heavy chain and β2-microglobulin obtained from 20×10⁶ cells were concentrated to 20 μl by vacuum centrifugation, acidified with 10 μl of 1% aqueous formic acid (Normapur) and loaded on C18 stage tips (ThermoFisher) prewashed with 100% methanol and equilibrated with acetonitrile (ACN)/0.1% formic acid in LC-MS grade water (aq. formic acid) 2:98 (v/v). After loading, the C18 stage tips were washed with ACN/0.1% aq. formic acid 2:98 (v/v) and peptides separated from the more hydrophobic HLA Class I heavy chain and β2-microglobulin species by eluting them with ACN/0.1% aq. formic acid 1:1 (v/v). […] For MS analysis, 5 μl of this peptide solution were used.
Peptides were loaded and separated by nanoflow HPLC (RSLC Ultimate 3000, ThermoFisher Scientific) on a reversed phase nanocolumn (C18 Acclaim PepMap 100, 50 cm length, 75 μm i.d. ThermoFisher Scientific) coupled on-line to a nanoESI Q Exactive mass spectrometer (ThermoFisher Scientific).

With `CC(C)C[C@H](NC(=O)[C@H](CCC(=O)O)NC(=O)[C@@H](NC(=O)[C@H](CC(C)C)NC(=O)[C@H](Cc1ccccc1)NC(=O)[C@H](Cc1c[nH]cn1)NC(=O)[C@H](CC(N)=O)NC(=O)[C@@H](NC(=O)[C@@H](N)Cc1ccccc1)[C@@H](C)O)C(C)C)C(=O)O` (H-FTNHFLVEL-OH; N-terminus and C-terminus assumed) as the molecule, how does the “cognate naïve CD8^+ T-cell repertoire (validation of candidate epitope)” value (“cognate naïve CD8^+ T-cell repertoire” below) ([1]; HLA-A2^+ healthy donors) read?
Its value is “validated”.

Which “cognate naïve CD8^+ T-cell repertoire” value ([1]; HLA-A2^+ healthy donors) does the source give for “CHGA344-352: HLA-eluted HLA-A2-restricted chromogranin A peptide (KMDQLAKEL)” here?
Its value is “validated”.

How did the “positive mice (number/tested)” value [2] turn out when “GYRDINEIDI [Pcsk2 109-118, peptide derived from murine Pcsk2, predicted to be restricted by K^d]” was run?
The value was 6/8.

And the “positive mice, percentage” value [2]?
Its value is 50%.

What about the “median percentage of IFN-γ^+CD8^+ cells” value [2] of the same molecule?
The value was 1.8%.

What about the “positive range of percentage of IFN-γ^+CD8^+ cells” value [2] of the same molecule?
The value was 1.9-4.3%.

For “IAPP15-17/IAPP5-10: peptide splice product from fusion of IAPP15-17/IAPP5-10 (VALKLQVFL)”, which donors with recognition ([1]; HLA-A2^+ healthy donors, screening) is on record?
The donors with recognition was 1 of 6.

What about the “median frequency in peripheral blood” value [1] of the same molecule?
The value was 1.6×10^−6.

And the “in-situ MMr staining of pancreas sections” value [3]?
Its value is “MMr^+ cells could be detected”.

Which “positive mice (number/tested)” value [2] does the source give for “IGRP 206-214: positive control peptide in NOD recall assay (VYLKTNVFL; UniProt Q9Z186 206-214, looked up, fragment) [reference compound]” here?
Its value is 13/13.

What about the “positive mice, percentage” value [2] of the same molecule?
The value was 100%.

And the “median percentage of IFN-γ^+CD8^+ cells” value [2]?
The value was 12.5%.

And the “positive range of percentage of IFN-γ^+CD8^+ cells” value [2]?
Its value is 4.5-25.3%.

Which results are given for “ISL1276-284: HLA-eluted HLA-A2-restricted peptide of insulin gene enhancer protein ISL1 (GLQANPVEV)”?
cognate naïve CD8^+ T-cell repertoire (validation of candidate epitope) ([1]; HLA-A2^+ healthy donors): validated; median frequency in peripheral blood [1]: 7.2×10^−6; in-situ MMr staining of pancreas sections [3]: MMr^+ cells could be detected

For “KCNK16129-137: HLA-eluted HLA-A2-restricted KCNK16 peptide (ALLGIPLNV)”, which “cognate naïve CD8^+ T-cell repertoire” value ([1]; HLA-A2^+ healthy donors) is on record?
Its value is “validated”.

For “KIF1A1347-1355: HLA-eluted HLA-A2-restricted Kinesin Family Member 1A peptide (VLDTSVAYV)”, which “cognate naïve CD8^+ T-cell repertoire” value ([1]; HLA-A2^+ healthy donors) is on record?
The value was “validated”.

Which results are given for “LYDESCSSTL [Pcsk2 341-350, peptide derived from murine Pcsk2, predicted to be restricted by K^d]”?
positive mice (number/tested) [2]: 6/8; positive mice, percentage [2]: 75%; median percentage of IFN-γ^+CD8^+ cells [2]: 3.3%; positive range of percentage of IFN-γ^+CD8^+ cells [2]: 1.9-5.2%

With “RYLEHVQAVI [Pcsk2 501-510, peptide derived from murine Pcsk2, predicted to be restricted by K^d]” as the molecule, how does the “positive mice (number/tested)” value [2] read?
Its value is 5/8.

And the “positive mice, percentage” value [2]?
Its value is 63%.

What about the “median percentage of IFN-γ^+CD8^+ cells” value [2] of the same molecule?
The value was 2.7%.

And the “positive range of percentage of IFN-γ^+CD8^+ cells” value [2]?
The value was 2.1-8.0%.

Which “cognate naïve CD8^+ T-cell repertoire” value ([1]; HLA-A2^+ healthy donors) does the source give for “SCG5-009186-194: HLA-eluted peptide from SCG5-009 mRNA splice variant (FLSGAVNRL)” here?
The value was “validated”.

And the “frequency of MMr^+ CD8^+ T cells, in words” value [1]?
The value was “particularly high and clustered”.

“SCG5186-195: HLA-eluted HLA-A2-restricted SCG5 (7B2) peptide (YLQGQRLDNV)” was tested. Which “cognate naïve CD8^+ T-cell repertoire” value ([1]; HLA-A2^+ healthy donors) did it give?
Its value is “validated”.

For “TYFLLPLLL [Ucn3 5-13, peptide derived from murine Ucn3, predicted to be restricted by K^d]”, which “positive mice (number/tested)” value [2] is on record?
The value was 8/12.

What about the “positive mice, percentage” value [2] of the same molecule?
The value was 67%.

And the “median percentage of IFN-γ^+CD8^+ cells” value [2]?
Its value is 2.3%.

And the “positive range of percentage of IFN-γ^+CD8^+ cells” value [2]?
The value was 2.1-8.6%.

“UCN31-9: HLA-eluted HLA-A2-restricted urocortin-3 peptide (MLMPVHFLL)” was tested. Which “cognate naïve CD8^+ T-cell repertoire” value ([1]; HLA-A2^+ healthy donors) did it give?
Its value is “validated”.

And the “frequency of MMr^+ CD8^+ T cells, in words” value [1]?
Its value is “particularly high and clustered”.

What does the source list for “VFSCLNTAL [Ucn3 32-40, peptide derived from murine Ucn3, predicted to be restricted by K^d]”?
positive mice (number/tested) [2]: 8/12; positive mice, percentage [2]: 67%; median percentage of IFN-γ^+CD8^+ cells [2]: 1.9%; positive range of percentage of IFN-γ^+CD8^+ cells [2]: 1.9-3.3%

With “ZnT8186-184: positive control islet peptide (VAANIVLTV; UniProt Q8IWU4 186-194, looked up, fragment) [reference compound]” as the molecule, how does the “in-situ MMr staining of pancreas sections” value [3] read?
The value was “MMr^+ cells could be detected”.

B1: insulin gene enhancer protein ISL1 276-284 peptide (peptide, UniProt P61371 276-284, looked up)
peptide: GLQANPVEV
notes: range 276-284; Synthetic peptide
Does B1 bind (HLA-A*02:01 [4])?
Result: binds

B2: KCNK16 129-137 peptide (peptide, UniProt Q96T55 129-137, looked up)
peptide: ALLGIPLNV
notes: range 129-137; Synthetic peptide
Does B2 bind (HLA-A*02:01 [4])?
Result: binds

B3: PCSK2 30-38 peptide (FTNHFLVEL) (peptide)
peptide: FTNHFLVEL
Does B3 bind (HLA-A*02:01 [5])?
Result: binds
